# Where a SMILES comes first, the peptide text is derived from it. Bridges are numbered along the chain shown (N, C = ends).
# Tests used:
# [1] = system: S. suis CVCC3309; experiment: MIC assay; type: cell-based, Streptococcus suis; settings: MHB, 1 × 10^5 CFU/ml, 37 °C, 18–24 h, triplicate
# Protocol: (§1) The peptide solutions were diluted twofold with the range of final concentrations were 0.015–32 µg/ml (0.003–7.273 µM) for purified H1, H2, H3, H6, and H8. The test strains were grown in MHB medium at 37 °C to an OD600 of 0.4 and diluted to 1 × 10^5 CFU/ml. The 10 µl peptide and 90 µl cell suspension were added into each well. All assays were performed in triplicate. The antimicrobial activity of NZ2114 and vancomycin were tested as positive controls. The plates were incubated at 37 °C for 18–24 h. MIC was defined as the lowest peptide concentration of ones at which there was no visible growth (Tian et al. [2009]).
# [2] = system: S. suis CVCC3928; experiment: MIC assay; type: cell-based, Streptococcus suis; settings: MHB, 1 × 10^5 CFU/ml, 37 °C, 18–24 h, triplicate
# Protocol: as §1
# [3] = system: S. suis CVCC606; experiment: MIC assay; type: cell-based, Streptococcus suis; settings: MHB, 1 × 10^5 CFU/ml, 37 °C, 18–24 h, triplicate
# Protocol: as §1
# [4] = system: S. pneumoniae CVCC1.8722; experiment: MIC assay; type: cell-based, Streptococcus pneumoniae; settings: MHB, 1 × 10^5 CFU/ml, 37 °C, 18–24 h, triplicate
# Protocol: as §1
# [5] = system: S. pneumoniae CVCC2350; experiment: MIC assay; type: cell-based, Streptococcus pneumoniae; settings: MHB, 1 × 10^5 CFU/ml, 37 °C, 18–24 h, triplicate
# Protocol: as §1
# [6] = system: mice red blood cells; experiment: Hemolytic assay; type: cell-based; settings: 0.23 to 7.27 μM (1–32 μg/ml), 37 °C 1 h
# Protocol: The mice blood cells were washed three times in stroke-physiological saline solution (0.9% NaCl) and centrifuged at 4 °C, 2000 rpm for 5 min. A 50-μl cell was diluted to 8% (v/v), added into 96-well plates, and mixed with 50-μl peptide to the final concentrations ranging from […]. The plates were incubated at 37 °C for 1 h, and centrifuged at 4 °C, 5000 rpm for 5 min. The absorbance of supernatants was measured at 540 nm, and 0 and 100% hemolysis was measured by 0.9% NaCl and 0.1% Triton X-100, respectively. The hemolysis percentages were calculated by the following equation: [(Abs540 nm in H1, H2, H3 solution − Abs540 nm in 0.9% NaCl)/(Abs540 nm in 0.1% Triton X-100 − Abs540 nm in 0.9% NaCl)] ×100% (Jiao et al. [2015]).
# [7] = system: S. aureus ATCC43300; experiment: Effect of pH on activity (MIC); type: cell-based, Staphylococcus aureus; settings: then MIC assay
# Protocol: as §1
# (§2) The effect of pH, temperature, NaCl concentration and proteinase on the activity of peptides was evaluated. Peptides were diluted twofold, then adjusted to a pH range from 2.0 to 10.0 and incubated at 37 °C for 4 h. The thermal stability of purified peptides was determined after 1-h incubation of peptides at 4, 20, 40, 60, 80 and 100 °C in deionized water, respectively. Aliquots of peptides were incubated in various proteinases solutions [pepsin (pH 2.0), trypsin (pH 8.0), proteinase K (pH 7.0)] at a ratio of 1:10, w/w (proteinase: peptide) at 37 °C for 3 h. For the ion stability, peptides were incubated in 50, 100, 200, 300, 400, 500 mM sodium chloride solutions, respectively. Other methods and conditions were prepared as the MIC assay described above (Li et al. [2015]; Qu et al. [2016]).
# [8] = system: S. enteritidis CMCC50336; experiment: MIC assay; type: cell-based, Salmonella enteritidis; settings: MHB, 1 × 10^5 CFU/ml, 37 °C, 18–24 h, triplicate
# Protocol: as §1
# [9] = system: S. aureus ATCC43300; experiment: microbe, parasite or virus in culture; type: cell-based, Staphylococcus aureus; settings: for MICc (MIC of the most effective combination): checkerboard; for FIC: MICc/MICa
# Protocol: The MIC values of four antibiotics (vancomycin, ampicillin, rifampicin and ciprofloxacin) to S. aureus ATCC43300 were tested as the MIC assay described above. The peptide solutions and antibiotics were diluted twofold with the final concentrations ranging from 1/16 to 8× MIC, and added into 96-well plates in a checkerboard fashion (White et al. [1996]). The results of combination were evaluated by calculating the fractional inhibitory concentration index (FICI) of each combination. FIC of H1, H2, H3=MIC of H1, H2, H3, respectively, in combination with antibiotic/MIC of H1, H2, H3 alone; FIC of antibiotics=MIC of antibiotic in combination with peptide/MIC of antibiotic alone; FICI = FIC of H1, H2, H3+ antibiotic, respectively. The result of interaction between two antimicrobial drugs was determined according to: FICI ≤ 0.5 refers to synergy, 0.5 < FICI ≤ 1 refers to additivity, 1 < FICI ≤ 4 refers to indifference, and FICI > 4 is defined as antagonism (Tsuji and Rybak [2006]).
# [10] = system: E. coli CVCC195; experiment: MIC assay; type: cell-based, Escherichia coli; settings: MHB, 1 × 10^5 CFU/ml, 37 °C, 18–24 h, triplicate
# Protocol: as §1
# [11] = system: E. coli CICC21530; experiment: MIC assay; type: cell-based, Escherichia coli; settings: MHB, 1 × 10^5 CFU/ml, 37 °C, 18–24 h, triplicate
# Protocol: as §1
# [12] = system: S. aureus ATCC43300; experiment: Effect of temperature on activity (MIC); type: cell-based, Staphylococcus aureus; settings: then MIC assay
# Protocol: as §1, §2
# [13] = system: S. aureus ATCC43300 (MRSA); experiment: Time-kill curve assay; type: cell-based, Staphylococcus aureus; settings: for time for bacterial counts to decrease to 2 log10 CFU/ml (a 99.9% reduction): start 1 × 10^5 CFU/ml, 37 °C, triplicate
# Protocol: Bacterial culture (S. aureus ATCC43300) was diluted to 1 × 10^5 CFU/ml and H1, H2, and H3 were added. […] The mixture was cultivated at 250 rpm, 37 °C. The 100-µl samples were taken from each flask at 0, 2, 4, 6, 8, 12 and 24 h of incubation, and serial dilutions of samples were plated to count visible colonies. Vancomycin was tested in the same way as a positive control and the culture without antimicrobial agent as a negative control (Xiong et al. [2011]). All experiments were performed in triplicate.
# [14] = in combination with ciprofloxacin
smiles,measurement,setting,value
"CC[C@H](C)[C@@H]1NC(=O)[C@H](CO)NC(=O)[C@H](CCCCN)NC(=O)[C@@H]2CSSC[C@@H](C(=O)N[C@@H](Cc3ccc(O)cc3)C(=O)O)NC(=O)[C@H](CCCCN)NC(=O)[C@@H]3CSSC[C@H](NC(=O)[C@H](CCCNC(=N)N)NC(=O)[C@H](CC(C)C)NC(=O)[C@H](CC(=O)O)NC(=O)[C@H](CC(=O)O)NC(=O)[C@H](CCC(=O)O)NC(=O)[C@H](CC(N)=O)NC(=O)[C@H](Cc4c[nH]c5ccccc45)NC(=O)[C@@H]4CCCN4C(=O)CNC(=O)[C@H](CC(N)=O)NC(=O)[C@@H](NC(=O)CNC(=O)[C@H](Cc4ccccc4)NC(=O)CN)CSSC[C@H](NC(=O)[C@H](Cc4ccc(O)cc4)NC(=O)CNC(=O)CNC(=O)[C@H](CCCCN)NC(=O)[C@H](Cc4ccc(O)cc4)NC(=O)CNC(=O)[C@H](CCCCN)NC1=O)C(=O)N[C@@H](C)C(=O)N[C@@H](CCCCN)C(=O)NCC(=O)NCC(=O)N[C@@H](Cc1ccccc1)C(=O)N[C@@H](C(C)C)C(=O)N3)C(=O)N[C@@H](CCCNC(=N)N)C(=O)N[C@@H](CC(N)=O)C(=O)N[C@@H](Cc1c[nH]cn1)C(=O)N2 [H2] (H-GFGCNGPWNEDDLRCRNHCKSIKGYKGGYCAKGGFVCKCY-OH; disulfide 4-30, 15-37, 19-39 (inferred); N-terminus and C-terminus assumed)",MIC,[1],0.028 µM
same,MIC,[2],0.014 µM
same,MIC,[3],0.028 µM
same,MIC,[4],0.227 µM
same,MIC,[5],0.227 µM
same,hemolytic activity,[6],little or no hemolytic activity
same,MIC after incubation at pH2,"[7]; pH 2, 37 °C for 4 h",0.114 μM
same,MIC after incubation at pH4,"[7]; pH 4, 37 °C for 4 h",0.114 μM
same,MIC after incubation at pH6,"[7]; pH 6, 37 °C for 4 h",0.114 μM
same,MIC after incubation at pH8,"[7]; pH 8, 37 °C for 4 h",0.114 μM
same,MIC after incubation at pH10,"[7]; pH 10, 37 °C for 4 h",0.114 μM
same,MIC,[8],>7.273 µM
same,MICc (MIC of the most effective combination),[9]; in combination with ampicillin,0.113 µM
same,MICc (MIC of the most effective combination),[9]; [14],0.227 µM
same,MICc (MIC of the most effective combination),[9]; in combination with rifampicin,0.056 µM
same,MICc (MIC of the most effective combination),[9]; in combination with vancomycin,0.113 µM
same,MIC,"[9]; drug alone, read-out: MICa (MIC of drug alone)",0.113 µM
same,FIC,[9]; in combination with ampicillin,1
same,FIC,[9]; [14],2
same,FIC,[9]; in combination with rifampicin,0.5
same,FIC,[9]; in combination with vancomycin,1
same,MIC,[10],>7.273 µM
same,MIC,[11],>7.273 µM
same,MIC after incubation at 4 °C,[12]; 1 h at 4 °C in deionized water,0.114 µM
same,MIC after incubation at 20 °C,[12]; 1 h at 20 °C in deionized water,0.114 µM
same,MIC after incubation at 40 °C,[12]; 1 h at 40 °C in deionized water,0.114 µM
same,MIC after incubation at 60 °C,[12]; 1 h at 60 °C in deionized water,0.114 µM
same,time for bacterial counts to decrease to 2 log10 CFU/ml (a 99.9% reduction),[13]; 1× MIC,1.5 h
same,regrowth of pathogens up to 24 h,"[13]; 1×, 2× and 4× MIC, maintained to 24 h",without regrowth
same,time for bacterial counts to decrease to 2 log10 CFU/ml (a 99.9% reduction),[13]; 2× MIC,1 h
same,time for bacterial counts to decrease to 2 log10 CFU/ml (a 99.9% reduction),[13]; 4× MIC,0.5 h

# — article PMC5321639, “Design and pharmacodynamics of recombinant NZ2114 histidine mutants with improved activity against methicillin-resistant Staphylococcus aureus” (AMB Express, 2017)
